Experimental data as given in patent US20170184612A1, “USE OF LEUKOCYTES AND NOVEL BIOMARKERS IN THE DIAGNOSIS, CONFIRMATION, AND TREATMENT OF A NEUROLOGICAL DISORDER” (The Trustees of Columbia University in the City of New York, priority 2014, published 2017).

What was measured:
[1] = tested on: peripheral blood mononuclear cells (PBMC), T cells; test: ELISpot assay, gamma-interferon release (SFC) after stimulation with a-synuclein epitope pools; assay type: cell-based, human; details: for Pool +: IFNg, Pool Stimulated, number of donors with a positive response, Donors tested 1; for IFNg Peptide + (donors positive to the peptide): of donors tested (peptide); for IFNg Peptide +: number of donors positive to the single peptide
Protocol: (§1) Blood from age matched controls and PD patients were obtained and mononuclear cells were isolated by gradient centrifugation.
(§2) Release of the cytokines gamma-interferon, which measures activation of CD4+ and/or CD8+ T cells, and the interleukin, IL-5, which measures activation of CD4+ T cells was measured by ELISpot assay. […] After 22 hours of stimulation at 37 C, the cells were removed and release of cytokines was measured by colorimetric detection of spot-forming cells (SFC). Confirmed release of cytokine is determined by the presence of a minimum of 20 SFC per million cells.
(§3) The binding algorithms in SubAim 1 predict how well the peptides would bind to MHC if present, but not if they are present in patients. To determine this, the presence of T cell response against the candidate antigens by patient blood-derived peripheral blood mononuclear cells (PBMC) is assessed by ELISPOT assays upon stimulation with the peptides. This assay detects and quantifies cytokine release (in this case, IFNγ and IL-5) from specific activated T cells.
(§4) Data were obtained from blood samples (25 ml) from 44 PD patients and 24 age-matched controls. The experiments were conducted blindly. PBMCs from these samples were isolated and exposed to pools comprising the 122 candidate class I and class II antigens and phosphorylated S129 epitopes generated in Subaim 1. For the PBMCs responsive to the pooled peptides, the response was then deconvoluted to identify individual epitopes.
(§5) PMBC fractions are recovered by standard methods with Ficoll gradient and T cells expansion (Oseroff et al., 2010). The methods for the analysis of T cell reactions and measurement of cytokines production using the enzyme-linked immunosorbent spot (ELISPOT) assay are published in analogous experiments to discover antigens in multiple sclerosis (Lolli et al., 2013) and in hay fever allergens (Oseroff et al., 2010). T cell responses are determined by measuring IFNγ and IL-5 release by ELISPOT. Statistical analysis of differences between populations is expected to be non-parametric and analyzed with the U-Mann-Whitney test. If there were a normal distribution of response, which is a priori unlikely as some patients have no T cell response, with an SD=1, 8 patients per group would be required to provide a p>90% that the study detect a >2 fold difference at a two-sided 0.05 significance level.

[2] = tested on: peripheral blood mononuclear cells (PBMC), T cells; test: ELISpot assay, IL-5 release (SFC) after stimulation with a-synuclein epitope pools; assay type: cell-based, human; details: for IL-g Peptide + (donors positive to the peptide): of donors tested (peptide); for IL-g Peptide +: number of donors positive to the single peptide
Protocol: as §1, §2, §3, §4, §5

[3] = Patients Summary, PD patients, single peptide
[4] = second 'Pool Stimulated' section (from r296), 12 donors tested
[5] = peptide + / donors tested (peptide), second 'Pool Stimulated' section (from r296), 12 donors tested
[6] = single peptide, second 'Pool Stimulated' section (from r296), 12 donors tested

| Substance | Pool + [1] | IFNg Peptide + (donors positive to the peptide) ([1]; Patients Summary, PD patients) | IFNg Response Frequency [1, 3] [%] | IFNg Total SFC [1, 3] [SFC] | IFNg Peptide + [1, 4] | IFNg Response Frequency [1, 5] [%] | IFNg Total SFC [1, 6] [SFC] | IL-g Peptide + (donors positive to the peptide) ([2]; Patients Summary, PD patients) | IL-g Response Frequency [2, 3] [%] | IL-g Total SFC [2, 3] [SFC] | IL-g Peptide + [2, 4] | IL-g Response Frequency [2, 5] [%] | IL-g Total SFC [2, 6] [SFC] | IL-g Avg SFC [2, 3] [SFC] | IFNg Avg SFC [1, 3] [SFC] |
| --- | --- | --- | --- | --- | --- | --- | --- | --- | --- | --- | --- | --- | --- | --- | --- |
| 3521.0007 (AAATGFVKK; listed as Homo sapiens) | 0 | 0 | 0 | 0 | 0 | 0 | 0 | 0 | 0 | 0 | 0 | 0 | 0 |  |  |
| 3521.0008 (IAAATGFVK; listed as Homo sapiens) | 0 | 0 | 0 | 0 | 0 | 0 | 0 | 1 | 25 | 177 | 0 | 0 | 0 | 177 |  |
| 3521.0009 (LYVGSKTKK; listed as Homo sapiens) | 0 | 2 | 33 | 326 |  |  |  | 1 | 17 | 559 |  |  |  | 559 | 163 |
| 3521.0011 (QVTNVGGAV; listed as Homo sapiens) | 0 | 0 | 0 | 0 | 0 | 0 | 0 | 0 | 0 | 0 | 0 | 0 | 0 |  |  |
| 3521.0013 (VTNVGGAVV; listed as Homo sapiens) | 0 | 1 | 50 | 209 | 0 | 0 | 0 | 0 | 0 | 0 | 0 | 0 | 0 |  | 209 |
| 3521.0014 (KTVEGAGSI; listed as Homo sapiens) | 0 | 0 | 0 | 0 | 0 | 0 | 0 | 0 | 0 | 0 | 0 | 0 | 0 |  |  |
| 3521.0015 (KTKEQVTNV; listed as Homo sapiens) | 0 | 0 | 0 | 0 | 0 | 0 | 0 | 0 | 0 | 0 | 0 | 0 | 0 |  |  |
| 3521.0018 (MPVDPDNEA; listed as Homo sapiens) | 0 | 0 | 0 | 0 | 0 | 0 |  | 0 | 0 | 0 | 0 | 0 | 0 |  |  |
| 3521.0019 (APGKTKEGV; listed as Homo sapiens) | 0 | 0 | 0 | 0 | 0 | 0 | 0 | 0 | 0 | 0 | 0 | 0 | 0 |  |  |
| 3521.0021 (PGKTKEGVL; listed as Homo sapiens) | 0 | 1 | 13 | 36 | 0 | 0 | 0 | 0 | 0 | 0 | 0 | 0 | 0 |  | 36 |
| 3521.0022 (GSIAAATGF; listed as Homo sapiens) | 0 | 0 | 0 | 0 | 0 | 0 | 0 | 0 | 0 | 0 | 0 | 0 | 0 |  |  |
